# Assay results from patent US20240199587A1, “HETEROCYCLIC COMPOUNDS” (Hoffmann-La Roche Inc., priority 2021, published 2024).
# Biological target: T1, MAGL (Homo sapiens, UniProt Q99685)
# T1 sequence (Q99685 1-303): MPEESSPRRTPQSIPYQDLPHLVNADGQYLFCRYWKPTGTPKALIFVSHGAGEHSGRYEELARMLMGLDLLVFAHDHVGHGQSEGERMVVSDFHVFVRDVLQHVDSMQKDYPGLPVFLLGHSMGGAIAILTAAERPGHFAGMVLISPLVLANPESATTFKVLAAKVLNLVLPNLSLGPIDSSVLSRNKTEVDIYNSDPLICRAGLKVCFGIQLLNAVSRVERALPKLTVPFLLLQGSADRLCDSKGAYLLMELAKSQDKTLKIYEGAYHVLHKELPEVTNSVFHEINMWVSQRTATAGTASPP
# Assay: 2-AG assay (MAGL inhibitory activity, hydrolysis of 2-arachidonoylglycerol to arachidonic acid followed by mass spectrometry)
# Type: biochemical
# Conditions: 8 μM 2-arachidonoylglycerol, 15 min pre-incubation, 30 min incubation at RT, RapidFire MS readout
# Method in brief: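 Human MAGL ([…] final) pre-incubated 15 min at RT with compound in 50 mM TRIS, 1 mM EDTA, 0.01% Tween-20, 2.5% DMSO; 8 μM 2-AG then added for 30 min at RT. Acetonitrile quench with d8-arachidonic acid; arachidonic acid measured by RapidFire SPE–MS/MS, activity from arachidonic acid/d8 ratio.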
row,Compound,IC50 [nM]
1,"O=C(N1CC(c2cnc(N3CC[C@H](C(F)(F)F)C3)nc2)C1)N1CC2(CC(n3cnc(C4CC4)n3)C2)C1 [Example 481, [6-(3-cyclopropyl-1,2,4-triazol-1-yl)-2-azaspiro[3.3]heptan-2-yl]-[3-[2-[(3S)-3-(trifluoromethyl)pyrrolidin-1-yl]pyrimidin-5-yl]azetidin-1-yl]methanone]",4.07
2,"O=C(N1CC(Oc2ccc(C3CC3)cn2)C1)N1CC2(CC(n3cnc(C4CC4)n3)C2)C1 [Example 210, [3-[(5-cyclopropyl-2-pyridyl)oxy]azetidin-1-yl]-[6-(3-cyclopropyl-1,2,4-triazol-1-yl)-2-azaspiro[3.3]heptan-2-yl]methanone]",1.3
3,"O=C(N1CC(c2nc(C3(C(F)(F)F)CC3)no2)C1)N1CC2(CC(n3cnc(C4CC4)n3)C2)C1 [Example 166, [6-(3-cyclopropyl-1,2,4-triazol-1-yl)-2-azaspiro[3.3]heptan-2-yl]-[3-[3-[1-(trifluoromethyl)cyclo-propyl]-1,2,4-oxadiazol-5-yl]azetidin-1-yl]methanone]",97.9
4,"O=C(N1CC(CNS(=O)(=O)c2cccc(C(F)(F)F)c2)C1)N1CC2(CC(n3cnc(C4CC4)n3)C2)C1 [Example 246, N-[[1-[6-(3-cyclopropyl-1,2,4-triazol-1-yl)-2-azaspiro[3.3]heptane-2-carbonyl]azetidin-3-yl]methyl]-3-(trifluoromethyl)benzenesul fonamide]",12.2
5,"CN(C)S(=O)(=O)N1CC2(CN(C(=O)N3CC4(CC(n5cnc(C6CC6)n5)C4)C3)C2)C1 [Example 314, 6-[6-(3-cyclopropyl-1,2,4-triazol-1-yl)-2-azaspiro[3.3]heptane-2-carbonyl]-N,N-dimethyl-2,6-diazaspiro[3.3]heptane-2-sulfonamide]",229
6,"O=C(N1CC2(CC(n3cnc(C4CC4)n3)C2)C1)N1CC2(C1)CN(S(=O)(=O)c1ccc(F)c(F)c1)C2 [Example 273, [6-(3-cyclopropyl-1,2,4-triazol-1-yl)-2-azaspiro[3.3]heptan-2-yl]-[2-(3,4-difluorophenyl)sulfonyl-2,6-diazaspiro[3.3]heptan-6-yl]methanone]",34.4
7,"O=C(N1CCC(CNS(=O)(=O)c2ccc(OC(F)(F)F)cc2)CC1)N1CC2(CC(n3cnc(C4CC4)n3)C2)C1 [Example 259, N-[[1-[6-(3-cyclopropyl-1,2,4-triazol-1-yl)-2-azaspiro[3.3]heptane-2-carbonyl]-4-piperidyl]methyl]-4-(trifluoromethoxy) benzenesulfonamide]",21.8
8,"CC1(NS(=O)(=O)N2CC3(CN(C(=O)N4CC5(CC(n6cnc(C7CC7)n6)C5)C4)C3)C2)CC1 [Example 269, 6-[6-(3-cyclopropyl-1,2,4-triazol-1-yl)-2-azaspiro[3.3]heptane-2-carbonyl]-N-(1-methylcyclopropyl)-2,6-diazaspiro[3.3]heptane-2-sulfonamide]",32.2
9,"CP(C)(=O)c1ccc(COC2CN(C(=O)N3CC4(CC(n5cnc(C6CC6)n5)C4)C3)C2)cc1 [Example 415, [6-(3-cyclopropyl-1,2,4-triazol-1-yl)-2-azaspiro[3.3]heptan-2-yl]-[3-[(4-dimethylphosphorylphenyl)methoxy]azetidin-1-yl]methanone]",1060
10,"O=C(N1CC(Oc2ccc(Cl)cc2F)C1)N1CC2(CC(n3cnc(C4CC4)n3)C2)C1 [Example 99, (3-(4-chloro-2-fluorophenoxy)azetidin-1-yl)(6-(3-cyclopropyl-1H-1,2,4-triazol-1-yl)-2-azaspiro[3.3]heptan-2-yl)methanone]",9.5
11,"CS(=O)(=O)c1ccc(COC2CN(C(=O)N3CC4(CC(n5cnc(C6CC6)n5)C4)C3)C2)c(F)c1 [Example 266, [6-(3-cyclopropyl-1,2,4-triazol-1-yl)-2-azaspiro[3.3]heptan-2-yl]-[3-[(2-fluoro-4-methylsulfonyl-phenyl)methoxy]azetidin-1-yl]methanone]",29
12,"O=C(N1CC2(CC(Cc3cnc(C(F)(F)F)cn3)C2)C1)N1CC2(CC(c3ccc(C(F)(F)F)nc3)C2)C1 [Example 519, [6-[[5-(trifluoromethyl)pyrazin-2-yl]methyl]-2-azaspiro[3.3]heptan-2-yl]-[6-[6-(trifluoromethyl)-3-pyridyl]-2-azaspiro[3.3]heptan-2-yl]methanone]",154
13,"CP(C)(=O)c1ccc(COC2CN(C(=O)N3CC4(CC(n5cnc(C(F)(F)F)n5)C4)C3)C2)cc1 [Example 414, [3-[(4-dimethyl-phosphorylphenyl)methoxy]azetidin-1-yl]-[6-[3-(trifluoromethyl)-1,2,4-triazol-1-yl]-2-azaspiro[3.3]heptan-2-yl]methanone]",2960
14,"O=C(N1CC2(CCN(S(=O)(=O)C34CC(C(F)(F)F)(C3)C4)CC2)C1)N1CC2(CC(n3cnc(C4CC4)n3)C2)C1 [Example 484, [6-(3-cyclopropyl-1,2,4-triazol-1-yl)-2-azaspiro[3.3]heptan-2-yl]-[7-[[3-(trifluoromethyl)-1-bicyclo[1.1.1]pentanyl]sulfonyl]-2,7-diazaspiro[3.5]nonan-2-yl]methanone]",19.5
15,O=C(N1CC(c2ccc(OC(F)(F)F)c(Cl)c2)C1)N1CC2(CC(n3cnc(C4CC4)c3)C2)C1 [Example 69],2
16,"O=C(N1CC2(CC(Cc3ccc(F)cc3F)C2)C1)N1CC2(CC(c3ccc(C(F)(F)F)nc3)C2)C1 [Example 358, [6-[(2,4-difluorophenyl)methyl]-2-azaspiro[3.3]heptan-2-yl]-[6-[6-(trifluoromethyl)-3-pyridyl]-2-azaspiro[3.3]heptan-2-yl]methanone]",30.6
17,"O=C(N1C[C@H]2C[C@H](Oc3c(F)cc(F)cc3F)C[C@H]2C1)N1CC2(CC(n3cnc(C4CC4)n3)C2)C1 [Example 124, [6-(3-cyclopropyl-1,2,4-triazol-1-yl)-2-azaspiro[3.3]heptan-2-yl]-[rac-(3aS,6aR)-5-(2,4,6-trifluorophenoxy)-3,3a,4,5,6,6a-hexahydro-1H-cyclopenta[c]pyrrol-2-yl]methanone]",4
18,"O=C(N1CC(OCc2ccc(F)cc2Cl)C1)N1CC2(CC(c3cncc(F)c3)C2)C1 [Example 513, [3-[(2-chloro-4-fluoro-phenyl)methoxy]azetidin-1-yl]-[6-(5-fluoro-3-pyridyl)-2-azaspiro[3.3]heptan-2-yl]methanone]",2370
19,"O=C(N1CC2(CC(n3cnc(C4CC4)n3)C2)C1)N1CC2(C1)CN(S(=O)(=O)c1cnccc1Cl)C2 [Example 278, [2-[(4-chloro-3-pyridyl)sulfonyl]-2,6-diazaspiro[3.3]heptan-6-yl]-[6-(3-cyclopropyl-1,2,4-triazol-1-yl)-2-azaspiro[3.3]heptan-2-yl]methanone]",37.3
20,"O=C(N1CC(c2ccc(N3CCC(O)(C(F)(F)F)C3)nc2)C1)N1CC2(CC(n3cnc(C4CC4)n3)C2)C1 (stereo not drawn) [Example 212, [6-(3-cyclopropyl-1,2,4-triazol-1-yl)-2-azaspiro[3.3]heptan-2-yl]-[3-[6-[3-hydroxy-3-(trifluoromethyl)pyrrolidin-1-yl]-3-pyridyl]azetidin-1-yl]methanone]",1.5
21,"CS(=O)(=O)c1cc(Cl)ccc1-c1ccc(C2CN(C(=O)N3CC4(CC(c5ccc(C(F)(F)F)nc5)C4)C3)C2)cc1 [Example 371, [3-[4-(4-chloro-2-methylsulfonyl-phenyl)phenyl]azetidin-1-yl]-[6-[6-(trifluoromethyl)-3-pyridyl]-2-azaspiro[3.3]heptan-2-yl]methanone]",9.23
22,"Cc1nc(C(=O)N2CC3(CC(n4cnc(C5CC5)n4)C3)C2)cnc1OCC1(C(F)(F)F)CC1 [Example 27, [6-(3-cyclopropyl-1,2,4-triazol-1-yl)-2-azaspiro[3.3]heptan-2-yl]-[6-methyl-5-[[1-(trifluoromethyl)cyclo-propyl]methoxy]pyrazin-2-yl]methanone]",26.5
23,"O=C(N1CC2(CC(n3cnc(C4CC4)n3)C2)C1)N1CC2(CC(n3cnc(C4CC4)n3)C2)C1 [Example 510, bis[6-(3-cyclopropyl-1,2,4-triazol-1-yl)-2-azaspiro[3.3]heptan-2-yl]methanone]",4.57
24,"NC(=O)C(c1ccc(F)cc1)C1CCN(C(=O)N2CC3(CC(n4cnc(C5CC5)n4)C3)C2)CC1 (single isomer, unassigned) [Example 291]",76.2
25,"O=C(N1CC2(CC(n3cnc(C4(O)CC4)n3)C2)C1)N1CC2(C1)CN(S(=O)(=O)c1cccc(OC(F)(F)F)c1)C2 [Example 497, [6-[3-(1-hydroxycyclopropyl)-1,2,4-triazol-1-yl]-2-azaspiro[3.3]heptan-2-yl]-[2-[3-(trifluoromethoxy)phenyl]sulfonyl-2,6-diazaspiro[3.3]heptan-6-yl]methanone]",84
26,"COc1ccnn1C1CC2(C1)CN(C(=O)c1ccc(-c3noc(C(C)(C)C)n3)cc1)C2 [Example 19, [4-(5-tert-butyl-1,2,4-oxadiazol-3-yl)phenyl]-[6-(5-methoxypyrazol-1-yl)-2-azaspiro[3.3]heptan-2-yl]methanone]",4170
27,"CC(C)(C)c1nc(-c2ccc(C(=O)N3CC4(CC(n5cc6c(n5)CCCC6)C4)C3)cc2)no1 [Example 12, [4-(5-tert-butyl-1,2,4-oxadiazol-3-yl)phenyl]-[6-(4,5,6,7-tetrahydroindazol-2-yl)-2-azaspiro[3.3]heptan-2-yl]methanone]",36.7
